Experimental data taken from ChEMBL document CHEMBL1157501, “Novel fluorinated acridone derivatives. Part 1: synthesis and evaluation as potential anticancer agents” (Bioorg Med Chem Lett, 2008).

Columns and labels:
[1] = test system: UACC-257; assay: Growth inhibition of human UACC257 cells at 10 uM relative to control; type: functional
[2] = test system: Hs-578T; assay: Anticancer activity against human HS578T cells; type: functional
[3] = test system: SK-MEL-28; assay: Growth inhibition of human SK-MEL-28 cells at 10 uM relative to control; type: functional
[4] = test system: SNB-75; assay: Growth inhibition of human SNB75 cells at 10 uM relative to control; type: functional
[5] = Growth inhibition of human HL60(TB) cells at 10 uM relative to control; type: functional, HL-60(TB); conditions: HL-60
[6] = test system: 786-0; assay: Growth inhibition of human 786-0 cells at 10 uM relative to control; type: functional
[7] = test system: NCI-H23; assay: Anticancer activity against human NCI-H23 cells; type: functional
[8] = test system: NCI-H522; assay: Anticancer activity against human NCI-H522 cells; type: functional
[9] = test system: MOLT-4; assay: Growth inhibition of human MOLT4 cells at 10 uM relative to control; type: functional
[10] = test system: HCT-116; assay: Anticancer activity against human HCT116 cells; type: functional
[11] = test system: SNB-75; assay: Anticancer activity against human SNB75 cells; type: functional
[12] = test system: NCI/ADR-RES; assay: Anticancer activity against human NCI/ADR-RES cells; type: functional
[13] = test system: MOLT-4; assay: Anticancer activity against human MOLT4 cells; type: functional
[14] = test system: BT-549; assay: Anticancer activity against human BT549 cells; type: functional
[15] = test system: SNB-19; assay: Anticancer activity against human SNB19 cells; type: functional
[16] = test system: HOP-92; assay: Anticancer activity against human HOP92 cells; type: functional
[17] = test system: CAKI-1; assay: Growth inhibition of human CAKI1 cells at 10 uM relative to control; type: functional
[18] = test system: SN12C; assay: Anticancer activity against human SN12C cells; type: functional
[19] = test system: UO-31; assay: Anticancer activity against human UO31 cells; type: functional
[20] = test system: OVCAR-5; assay: Anticancer activity against human OVCAR5 cells; type: functional
[21] = test system: PC-3; assay: Anticancer activity against human PC3 cells; type: functional
[22] = test system: 786-0; assay: Anticancer activity against human 786-0 cells; type: functional
[23] = test system: NCI-H226; assay: Anticancer activity against human NCI-H226 cells; type: functional
[24] = test system: EKVX; assay: Anticancer activity against human EKVX cells; type: functional
[25] = test system: HT-29; assay: Growth inhibition of human HT29 cells at 10 uM relative to control; type: functional
[26] = test system: M14; assay: Anticancer activity against human M14 cells; type: functional
[27] = test system: HCC 2998; assay: Anticancer activity against human HCC2998 cells; type: functional
[28] = test system: SK-MEL-5; assay: Anticancer activity against human SK-MEL-5 cells; type: functional
[29] = test system: MDA-MB-435; assay: Anticancer activity against human MDA-MB-435 cells; type: functional
[30] = test system: U-251; assay: Anticancer activity against human U251 cells; type: functional
[31] = test system: NCI-H322M; assay: Anticancer activity against human NCI-H322M cells; type: functional
[32] = test system: HT-29; assay: Anticancer activity against human HT29 cells; type: functional
[33] = test system: SW-620; assay: Anticancer activity against human SW620 cells; type: functional
[34] = test system: CCRF-CEM; assay: Anticancer activity against human CCRF-CEM cells; type: functional
[35] = test system: MCF7; assay: Anticancer activity against human MCF7 cells; type: functional
[36] = test system: OVCAR-4; assay: Anticancer activity against human OVCAR4 cells; type: functional
[37] = test system: SF-295; assay: Anticancer activity against human SF295 cells; type: functional
[38] = test system: MDA-MB-231; assay: Anticancer activity against human MDA-MB-231 cells; type: functional
[39] = test system: HCT-15; assay: Anticancer activity against human HCT15 cells; type: functional
[40] = test system: DU-145; assay: Anticancer activity against human DU145 cells; type: functional
[41] = test system: SF-539; assay: Anticancer activity against human SF539 cells; type: functional
[42] = test system: TK-10; assay: Anticancer activity against human TK10 cells; type: functional
[43] = test system: LOX IMVI; assay: Anticancer activity against human LOX IMVI cells; type: functional
[44] = Anticancer activity against human HL60(TB) cells; type: functional; conditions: HL-60
[45] = test system: UACC-62; assay: Anticancer activity against human UACC62 cells; type: functional
[46] = test system: SF-268; assay: Anticancer activity against human SF268 cells; type: functional
[47] = test system: T47D; assay: Growth inhibition of human T47D cells at 10 uM relative to control; type: functional
[48] = test system: OVCAR-8; assay: Anticancer activity against human OVCAR8 cells; type: functional
[49] = test system: MDA-MB-468; assay: Anticancer activity against human MDA-MB-468 cells; type: functional
[50] = test system: Malme-3M; assay: Anticancer activity against human MALME-3M cells; type: functional
[51] = test system: CAKI-1; assay: Anticancer activity against human CAKI1 cells; type: functional
[52] = test system: A549; assay: Anticancer activity against human A549 cells; type: functional
[53] = test system: KM12; assay: Anticancer activity against human KM12 cells; type: functional
[54] = test system: ACHN; assay: Anticancer activity against human ACHN cells; type: functional
[55] = test system: HCT-116; assay: Growth inhibition of human HCT116 cells at 10 uM relative to control; type: functional
[56] = test system: COLO 205; assay: Anticancer activity against human COLO205 cells; type: functional
[57] = test system: SK-MEL-28; assay: Anticancer activity against human SK-MEL-28 cells; type: functional
[58] = test system: MCF7; assay: Growth inhibition of human MCF7 cells at 10 uM relative to control; type: functional
[59] = test system: SF-295; assay: Growth inhibition of human SF295 cells at 10 uM relative to control; type: functional
[60] = test system: HOP-92; assay: Growth inhibition of human HOP92 cells at 10 uM relative to control; type: functional
[61] = test system: SK-OV-3; assay: Anticancer activity against human SKOV3 cells; type: functional
[62] = test system: T47D; assay: Anticancer activity against human T47D cells; type: functional
[63] = test system: OVCAR-3; assay: Anticancer activity against human OVCAR-3 cells; type: functional
[64] = test system: IGROV-1; assay: Anticancer activity against human IGROV1 cells; type: functional
[65] = test system: NCI-H460; assay: Anticancer activity against human NCI-H460 cells; type: functional
[66] = test system: K562; assay: Anticancer activity against human K562 cells; type: functional
[67] = test system: RPMI-8226; assay: Anticancer activity against human RPMI8226 cells; type: functional
[68] = test system: A498; assay: Anticancer activity against human A498 cells; type: functional
[69] = test system: HOP-62; assay: Anticancer activity against human HOP62 cells; type: functional
[70] = test system: UACC-257; assay: Anticancer activity against human UACC257 cells; type: functional
[71] = test system: CCRF-CEM; assay: Growth inhibition of human CCRF-CEM cells at 10 uM relative to control; type: functional
[72] = test system: A549; assay: Growth inhibition of human A549 cells at 10 uM relative to control; type: functional
[73] = test system: BT-20; assay: Antiproliferative activity against human BT20 cells after 72 hrs by Alamar Blue assay; type: functional, cell-based; conditions: BT-20, 72 h
[74] = test system: Jurkat; assay: Antiproliferative activity against human Jurkat cells after 72 hrs by Alamar Blue assay; type: functional, cell-based
[75] = test system: SW480; assay: Antiproliferative activity against human SW480 cells after 72 hrs by Alamar Blue assay; type: functional, cell-based; conditions: SW480, 72 h
[76] = test system: BT-549; assay: Antiproliferative activity against human BT549 cells after 72 hrs by alamar blue assay; type: functional, cell-based; conditions: BT-549, 72 h

## O=C1CC(C(F)(F)F)Cc2nc3c(Br)cc(Br)cc3cc21 (stereo unspecified)
[1]
  inhibition at 10 µM: 39%
[2]
  GI50: 16.3 µM
[3]
  inhibition at 10 µM: 40%
[4]
  inhibition at 10 µM: 76%
[5]
  inhibition at 10 µM: 58%
[6]
  inhibition at 10 µM: 54%
[7]
  GI50: 3.14 µM
[8]
  GI50: 11.1 µM
[9]
  inhibition at 10 µM: 31%
[10]
  GI50: 4.03 µM
[11]
  GI50: 1.46 µM
[12]
  GI50: 2.55 µM
[13]
  GI50: 20.8 µM
[14]
  GI50: 4.63 µM
[15]
  GI50: 11.3 µM
[16]
  GI50: 11.2 µM
[17]
  inhibition at 10 µM: 44%
[18]
  GI50: 8.82 µM
[19]
  GI50: 3.86 µM
[20]
  GI50: 1.91 µM
[21]
  GI50: 5.75 µM
[22]
  GI50: 8.12 µM
[23]
  GI50: 10.7 µM
[24]
  GI50: 3.54 µM
[25]
  inhibition at 10 µM: 77%
[26]
  GI50: 5.47 µM
[27]
  GI50: 2.6 µM
[28]
  GI50: 5.03 µM
[29]
  GI50: 1.56 µM
[30]
  GI50: 11.9 µM
[31]
  GI50: 6.26 µM
[32]
  GI50: 4.42 µM
[33]
  GI50: 15.7 µM
[34]
  GI50: 21.9 µM
[35]
  GI50: 0.13 µM
[36]
  GI50: 6.49 µM
[37]
  GI50: 2.96 µM
[38]
  GI50: 5.89 µM
[39]
  GI50: 3.35 µM
[40]
  GI50: 4.13 µM
[41]
  GI50: 2.85 µM
[42]
  GI50: 7.89 µM
[43]
  GI50: 19 µM
[44]
  GI50: 2.94 µM
[45]
  GI50: 9.87 µM
[46]
  GI50: 4.35 µM
[47]
  inhibition at 10 µM: 66%
[48]
  GI50: 26 µM
[49]
  GI50: 5.11 µM
[50]
  GI50: 7.15 µM
[51]
  GI50: 5.03 µM
[52]
  GI50: 4.65 µM
[53]
  GI50: 2.02 µM
[54]
  GI50: 17.5 µM
[55]
  inhibition at 10 µM: 64%
[56]
  GI50: 3.23 µM
[57]
  GI50: 8.98 µM
[58]
  inhibition at 10 µM: 41%
[59]
  inhibition at 10 µM: 61%
[60]
  inhibition at 10 µM: 57%
[61]
  GI50: 7.55 µM
[62]
  GI50: 3.55 µM
[63]
  GI50: 1.79 µM
[64]
  GI50: 1.29 µM
[65]
  GI50: 3.1 µM
[66]
  GI50: 6.23 µM
[67]
  GI50: 4.32 µM
[68]
  GI50: 2.69 µM
[69]
  GI50: 4.52 µM
[70]
  GI50: 16.1 µM

## Cc1c2c(nc3cc4c(cc13)OCO4)CC(C(F)(F)F)CC2=O (stereo unspecified)
[1]
  inhibition at 10 µM: < 20%
[3]
  inhibition at 10 µM: < 20%
[4]
  inhibition at 10 µM: 25%
[5]
  inhibition at 10 µM: < 20%
[6]
  inhibition at 10 µM: < 20%
[9]
  inhibition at 10 µM: < 20%
[71]
  inhibition at 10 µM: < 20%
[72]
  inhibition at 10 µM: 67%
[17]
  inhibition at 10 µM: < 20%
[25]
  inhibition at 10 µM: < 20%
[47]
  inhibition at 10 µM: < 20%
[55]
  inhibition at 10 µM: < 20%
[58]
  inhibition at 10 µM: < 20%
[59]
  inhibition at 10 µM: 32%
[60]
  inhibition at 10 µM: < 20%

## O=C1CC(C(F)(F)F)Cc2nc3ccc(Cl)cc3c(-c3ccccc3)c21 (stereo unspecified)
[1]
  inhibition at 10 µM: 40%
[73]
  IC50: 22.1 µM
[3]
  inhibition at 10 µM: < 20%
[4]
  inhibition at 10 µM: < 20%
[6]
  inhibition at 10 µM: < 20%
[71]
  inhibition at 10 µM: < 20%
[72]
  inhibition at 10 µM: 80%
[17]
  inhibition at 10 µM: 66%
[25]
  inhibition at 10 µM: < 20%
[74]
  IC50: 12.3 µM
[75]
  IC50: 28.4 µM
[47]
  inhibition at 10 µM: < 20%
[55]
  inhibition at 10 µM: 25%
[58]
  inhibition at 10 µM: < 20%
[59]
  inhibition at 10 µM: 48%
[60]
  inhibition at 10 µM: 37%
[76]
  IC50: 16.1 µM

## O=C1CC(C(F)(F)F)Cc2nc3ccc(Cl)cc3c(-c3ccccc3Cl)c21 (stereo unspecified)
[1]
  inhibition at 10 µM: < 20%
[73]
  IC50: 42.1 µM
[3]
  inhibition at 10 µM: < 20%
[4]
  inhibition at 10 µM: < 20%
[5]
  inhibition at 10 µM: < 20%
[6]
  inhibition at 10 µM: < 20%
[9]
  inhibition at 10 µM: 46%
[71]
  inhibition at 10 µM: 60%
[72]
  inhibition at 10 µM: 50%
[17]
  inhibition at 10 µM: < 20%
[25]
  inhibition at 10 µM: < 20%
[74]
  IC50: 87.6 µM
[75]
  IC50: 21.3 µM
[47]
  inhibition at 10 µM: < 20%
[55]
  inhibition at 10 µM: 38%
[58]
  inhibition at 10 µM: < 20%
[59]
  inhibition at 10 µM: < 20%
[60]
  inhibition at 10 µM: 38%
[76]
  IC50: 39.3 µM
